The values that follow come from ChEMBL document CHEMBL3124825, “Benzimidazole: an emerging scaffold for analgesic and anti-inflammatory agents” (Eur J Med Chem, 2014).

For experiment [1], the target named is Cannabinoid receptor 1 (Homo sapiens, UniProt P21554). The experiment in a line: Agonist activity at human CB1 receptor.
For experiment [2], the target named is Cannabinoid receptor 2 (Homo sapiens, UniProt P34972). Briefly: Agonist activity at human CB2 receptor.
Experiment [3] is filed under the species Homo sapiens. The experiment in a line: Selectivity ratio of Ki for human CB1 receptor to Ki for human CB2 receptor.

Sequence of Cannabinoid receptor 2 (P34972 whole entry): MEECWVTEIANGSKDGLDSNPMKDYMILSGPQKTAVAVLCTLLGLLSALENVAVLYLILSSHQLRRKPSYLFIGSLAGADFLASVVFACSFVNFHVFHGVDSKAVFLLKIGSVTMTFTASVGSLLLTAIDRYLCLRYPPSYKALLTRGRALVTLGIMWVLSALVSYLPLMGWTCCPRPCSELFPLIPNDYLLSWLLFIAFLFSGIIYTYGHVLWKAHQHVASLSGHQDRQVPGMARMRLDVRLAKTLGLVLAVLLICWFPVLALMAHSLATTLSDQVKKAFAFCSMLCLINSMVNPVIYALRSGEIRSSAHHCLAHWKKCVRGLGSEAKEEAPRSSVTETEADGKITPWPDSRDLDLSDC
Sequence of Cannabinoid receptor 1 (P21554 whole entry): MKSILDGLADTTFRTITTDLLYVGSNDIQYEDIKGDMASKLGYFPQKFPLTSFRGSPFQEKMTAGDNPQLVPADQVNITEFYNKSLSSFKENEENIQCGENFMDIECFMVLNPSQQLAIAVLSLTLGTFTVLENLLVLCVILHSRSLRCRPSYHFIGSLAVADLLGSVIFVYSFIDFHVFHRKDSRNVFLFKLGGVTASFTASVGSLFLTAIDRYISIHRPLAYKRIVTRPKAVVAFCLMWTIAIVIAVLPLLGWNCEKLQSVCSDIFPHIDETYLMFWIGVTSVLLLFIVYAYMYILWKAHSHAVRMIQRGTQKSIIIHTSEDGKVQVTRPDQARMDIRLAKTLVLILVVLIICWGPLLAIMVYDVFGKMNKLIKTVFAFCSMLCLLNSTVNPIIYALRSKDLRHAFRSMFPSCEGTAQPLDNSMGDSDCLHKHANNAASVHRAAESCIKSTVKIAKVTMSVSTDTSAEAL

`CCOc1ccc(Cc2nc3cc(C(=O)N(C)CC)ccc3n2CCC(C)C)cc1`: the values for the Ki in experiment [1] and in experiment [2] were 3.17 µM and 0.0033 µM, respectively. Also, the Ratio Ki in experiment [3] came to 970.

As usually defined, the Ki is the equilibrium dissociation constant of an inhibitor or competing ligand from its target. The low end stands for higher affinity, the high end for lower affinity.
